Test results: PMC10542788, “Discovery of a cystathionine γ-lyase (CSE) selective inhibitor targeting active-site pyridoxal 5′-phosphate (PLP) via Schiff base formation” (Scientific Reports, 2023)
“Also recorded” adds a separate entry of the source.

Tests used:
[1] = biological target: T1, rCBS (Rattus norvegicus, UniProt P32232); assay: rCBS inhibition, HSip-1 fluorescence; assay type: biochemical; conditions: 30 µM
T1 construct: GST (N); HA (C); made in house; host or cells: E. coli BL21
T1 sequence (P32232 1-561): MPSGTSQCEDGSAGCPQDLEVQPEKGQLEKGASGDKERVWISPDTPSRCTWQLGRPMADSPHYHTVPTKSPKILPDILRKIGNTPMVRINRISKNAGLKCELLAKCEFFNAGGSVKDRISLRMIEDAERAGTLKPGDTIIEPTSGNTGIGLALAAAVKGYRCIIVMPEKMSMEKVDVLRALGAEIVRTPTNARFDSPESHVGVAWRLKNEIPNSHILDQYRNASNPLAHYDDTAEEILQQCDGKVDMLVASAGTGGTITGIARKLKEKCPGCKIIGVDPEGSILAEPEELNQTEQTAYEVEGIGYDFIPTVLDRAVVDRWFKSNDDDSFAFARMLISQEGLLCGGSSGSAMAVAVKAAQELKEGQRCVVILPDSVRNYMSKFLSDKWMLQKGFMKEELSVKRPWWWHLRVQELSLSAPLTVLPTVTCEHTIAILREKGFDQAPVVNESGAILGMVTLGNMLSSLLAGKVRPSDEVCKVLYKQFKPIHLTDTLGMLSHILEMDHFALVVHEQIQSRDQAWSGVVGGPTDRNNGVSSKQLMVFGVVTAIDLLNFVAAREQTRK
Method: (§1) The selectivity of 1, 2 and PAG for rCSE over other RSS-producing enzymes, CBS and 3MST, was examined (Fig. 4a). CBS is a PLP-dependent enzyme, like CSE, and produces H2S from cysteine and homocysteine as substrates. 3MST is also an H2S-producing enzyme, but is not PLP-dependent and uses 3-mercaptopyruvate as a substrate. The amount of H2S produced by CBS or 3MST was evaluated in the presence or absence of the inhibitor by measuring the fluorescence intensity of HSip-1. […] We also examined the inhibitory activity towards two other PLP-dependent enzymes, MGL and ALT. MGL metabolizes L-methionine to α-ketobutyric acid, methanethiol and ammonia, and is inhibited by PAG[14]. MGL also produces H2S from homocysteine as a substrate, and this activity of MGL can be measured by fluorescence detection with HSip-1. […] The enzymatic activity of ALT can be assessed by means of a coupled assay using the reduction of pyruvate to L-lactate with lactate dehydrogenase and NADH and measuring the change in absorption of NADH.
10 µL of 2.5 mM cysteine and 2.5 mM homocysteine in 30 mM HEPES (pH 7.4) was added to 10 µL of a solution containing 20 µg/mL rCBS, 50 µM PLP, 100 µM SAM, 1 µM HSip-1, 0.005% tween 20, 0.5% DMSO and various concentrations of the inhibitors. The mixture was incubated at 37 °C for 2 h and the fluorescence intensity of HSip-1 was measured with a microplate reader.

[2] = biological target: T2, human CSE (hCSE) (Homo sapiens, UniProt P32929); assay: hCSE inhibition in lysate of HEK293T cells expressing hCSE, HSip-1; assay type: biochemical; conditions: mean ± S.E., read-out: IC50, inhibitory activity towards hCSE in cell lysate
T2 construct: expressed in transfected cells; host or cells: HEK293T
Method: We first examined whether or not 1 inhibits human CSE (hCSE) in cell lysates. We prepared the lysate of HEK293T cells expressing hCSE, and added 1.5 mM cysteine, 100 μM PLP, 1 μM HSip-1 and various concentrations of 1 to it. Based on fluorescence measurements, the IC50 value of 1 for hCSE was calculated to be 26 ± 2 µM, which is similar to the value for rCSE measured in HEPES buffer (Fig. 4b). […] We also confirmed that all amino acid residues of rCSE involved in the recognition of 1 are conserved in hCSE (Supplementary Fig. S10).
10 µL of 1.5 mM cysteine solution in 30 mM HEPES (pH 7.4) was added to 10 µL of solution containing 300 µg/mL cell lysate of HEK293T cells expressing hCSE, 100 µM PLP, 1 µM HSip-1, 0.005% tween 20 and various concentrations of the inhibitor (0.5% DMSO as a cosolvent). The mixture was incubated at 37 °C for 3 h and the fluorescence intensity of HSip-1 was measured with a microplate reader.

[3] = test system: MGL; assay: MGL inhibition, HSip-1 fluorescence; assay type: biochemical; conditions: 30 µM
Method: as §1
10 µL of 200 µM homocysteine in 30 mM HEPES (pH 7.4) was added to 10 µL of a solution containing 20 µg/mL MGL (Sigma-Aldrich), 100 µM PLP, 1 µM HSip-1, 0.005% tween 20 and various concentrations of the inhibitor (0.5% DMSO as a cosolvent). The mixture was incubated at 25 °C for 100 min and the fluorescence intensity of HSip-1 was measured with a microplate reader.

[4] = biological target: rCSE (Rattus norvegicus, UniProt P18757); assay: SPR measurement of binding between rCSE and 1; set-up: made in house; host or cells: E. coli
Method: Moreover, we performed surface plasmon resonance (SPR) assay to investigate the binding kinetics between rCSE and 1. rCSE was immobilized on a sensor chip of an SPR sensor, and various concentrations (6.25, 12.5, 25 and 50 µM) of 1 were flowed over it. The sensor chip was flushed with buffer solution not containing 1 before each concentration change of 1. […] In SPR binding studies between small molecule ligands and proteins, the washing process often markedly decreases the SPR signal.
The interaction between rCSE and oxamic hydrazide was analyzed using a Biacore T200 SPR instrument (Cytiva). A CM7 Biacore sensor chip (Cytiva) was used to immobilize rCSE at approximately 35,000 RU after activation with N-hydroxysuccinimide/N-ethyl-N′-(3-dimethylaminopropyl) carbodiimide hydrochloride. Acetate buffer (pH 5.5) was used to dilute rCSE. The activated surface of the sensor was blocked with 1 M ethanolamine. The interaction between rCSE and oxamic hydrazide was measured by injecting increasing concentrations of oxamic hydrazide into the sensor chip. The interaction was measured in 20 mM HEPES (pH 7.4) containing 150 mM NaCl, 0.5 mM TCEP, 100 µM PLP, 0.005% (v/v) Tween-20 and 1% (v/v) DMSO as a cosolvent.

rCSE, sequence (P18757 whole entry): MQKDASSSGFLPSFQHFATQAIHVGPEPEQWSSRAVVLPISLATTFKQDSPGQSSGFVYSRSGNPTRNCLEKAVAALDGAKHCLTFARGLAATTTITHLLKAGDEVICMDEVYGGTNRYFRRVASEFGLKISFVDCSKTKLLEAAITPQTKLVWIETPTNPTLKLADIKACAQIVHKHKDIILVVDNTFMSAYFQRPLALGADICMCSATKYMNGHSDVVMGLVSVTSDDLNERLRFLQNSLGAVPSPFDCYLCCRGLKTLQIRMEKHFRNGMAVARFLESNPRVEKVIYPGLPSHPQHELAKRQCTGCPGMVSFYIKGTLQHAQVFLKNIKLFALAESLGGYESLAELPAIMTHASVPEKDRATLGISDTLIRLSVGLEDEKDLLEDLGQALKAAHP
T2 sequence (P32929 whole entry): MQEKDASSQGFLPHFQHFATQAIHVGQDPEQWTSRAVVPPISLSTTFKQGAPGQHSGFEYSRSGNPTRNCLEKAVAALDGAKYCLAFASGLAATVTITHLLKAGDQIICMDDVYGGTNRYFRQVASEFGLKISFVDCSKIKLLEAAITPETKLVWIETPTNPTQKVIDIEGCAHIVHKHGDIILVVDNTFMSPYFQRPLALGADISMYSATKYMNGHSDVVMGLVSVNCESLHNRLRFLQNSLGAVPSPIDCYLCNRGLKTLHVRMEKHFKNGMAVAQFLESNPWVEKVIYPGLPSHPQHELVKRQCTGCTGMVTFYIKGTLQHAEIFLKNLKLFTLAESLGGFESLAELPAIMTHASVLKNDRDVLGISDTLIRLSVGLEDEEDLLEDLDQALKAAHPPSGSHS

Compound: NNC(=O)C(N)=O [Compound 1, oxamic hydrazide]
- selectivity for CSE over CBS [1]: high selectivity for CSE over CBS
- IC50 [2]: 26 ± 2 µM
- inhibitory activity towards MGL / selectivity for CSE over MGL [3]: high selectivity for CSE over MGL and ALT
- binding to rCSE (SPR) ([4]; 6.25, 12.5, 25 and 50 µM): increased concentration-dependently
- dissociation from rCSE during washing (SPR) ([4]; washing with buffer not containing 1): little dissociation occurs; also recorded: no dissociation
